Reference: paper PMC13266636 (ACS Medicinal Chemistry Letters, 2026)

What was measured:
Assay in all cases: stopped-flow CO2 hydration assay
Type in all cases: biochemical
Details in all cases: read-out: Topiramate; mean of […] assays, errors […]
hCA IX = molecular target: T1, hCA IX (Homo sapiens, UniProt Q16790)
T1 construct: gene CA9; tumor-associated isoform

hCA XIII = molecular target: T2, hCA XIII (Homo sapiens, UniProt Q8N1Q1)
T2 construct: gene CA13; cytosolic isoform

hCA VI = molecular target: T3, hCA VI (Homo sapiens, UniProt P23280)
T3 construct: gene CA6

hCA XIV = molecular target: T4, hCA XIV (Homo sapiens, UniProt Q9ULX7)
T4 construct: gene CA14

Question: `CC1(C)O[C@@H]2[C@@H](CO[C@@]3(COS(N)(=O)=O)OC(C)(C)O[C@@H]23)O1` [Topiramate] was tested. Which Ki (hCA IX) did it give?
Answer: Its Ki is […].

T2 sequence (Q8N1Q1 whole entry, canonical isoform): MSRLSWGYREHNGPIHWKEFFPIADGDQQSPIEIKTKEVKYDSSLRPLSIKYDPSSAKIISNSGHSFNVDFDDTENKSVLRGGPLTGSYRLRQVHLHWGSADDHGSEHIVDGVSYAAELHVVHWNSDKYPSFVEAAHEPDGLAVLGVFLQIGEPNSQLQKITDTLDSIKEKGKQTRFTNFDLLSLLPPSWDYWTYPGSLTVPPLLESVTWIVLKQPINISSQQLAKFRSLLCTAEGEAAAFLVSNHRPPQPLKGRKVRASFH
T3 sequence (P23280 18-308): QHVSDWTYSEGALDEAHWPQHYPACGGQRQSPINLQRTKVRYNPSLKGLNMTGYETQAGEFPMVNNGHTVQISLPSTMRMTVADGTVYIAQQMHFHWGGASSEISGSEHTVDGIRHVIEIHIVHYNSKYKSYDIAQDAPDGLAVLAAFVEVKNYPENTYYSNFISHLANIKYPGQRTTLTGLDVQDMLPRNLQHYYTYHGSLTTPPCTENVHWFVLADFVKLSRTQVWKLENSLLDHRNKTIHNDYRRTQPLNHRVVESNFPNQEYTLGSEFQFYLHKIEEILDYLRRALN
T4 sequence (Q9ULX7 16-290 limits assumed): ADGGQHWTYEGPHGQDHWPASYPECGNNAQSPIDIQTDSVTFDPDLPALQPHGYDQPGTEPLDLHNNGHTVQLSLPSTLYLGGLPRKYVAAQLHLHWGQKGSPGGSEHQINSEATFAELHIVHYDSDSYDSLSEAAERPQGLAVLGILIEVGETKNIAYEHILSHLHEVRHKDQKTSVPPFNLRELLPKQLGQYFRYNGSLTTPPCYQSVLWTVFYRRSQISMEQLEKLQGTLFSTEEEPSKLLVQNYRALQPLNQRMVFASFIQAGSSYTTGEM

Question: And the Ki (hCA XIII)?
Answer: The Ki was 47 nM.

Question: And the Ki (hCA VI)?
Answer: The Ki was 45 nM.

Question: What about the Ki (hCA XIV) of the same compound?
Answer: The Ki was 1460 nM.
